Assay results as given in patent publication US20210267204A1, “MICROBIOCIDAL OXADIAZOLE DERIVATIVES” (SYNGENTA CROP PROTECTION AG, priority 2018, published 2021).

Key:
[1] = tested on: Puccinia recondita f. sp. tritici; assay: Fungicidal activity against Puccinia recondita f. sp. tritici / wheat / leaf disc curative (brown rust); assay type: in vivo; settings: foliar, 200 ppm in the applied formulation, wheat leaf segments cv. Kanzler, applied 1 day after inoculation, assessed 6 to 8 days after application, compared to untreated, read-out: disease control
Experimental: Leaf disks or leaf segments of various plant species are cut from plants grown in a greenhouse. The cut leaf disks or segments are placed in multiwell plates (24-well format) onto water agar. The leaf disks are sprayed with a test solution before (preventative) or after (curative) inoculation. Compounds to be tested are prepared as DMSO solutions (max. 10 mg/mL) which are diluted to the appropriate concentration with 0.025% Tween20 just before spraying. The inoculated leaf disks or segments are incubated under defined conditions (temperature, relative humidity, light, etc.) according to the respective test system. A single evaluation of disease level is carried out 3 to 14 days after inoculation, depending on the pathosystem. Percent disease control relative to the untreated check leaf disks or segments is then calculated. Wheat leaf segments cv. Kanzler are placed on agar in multiwell plates (24-well format). The leaf segments are then inoculated with a spore suspension of the fungus. Plates were stored in darkness at 19° C. and 75% relative humidity. The formulated test compound diluted in water was applied 1 day after inoculation. The leaf segments were incubated at 19° C. and 75% relative humidity under a light regime of 12 hours light/12 hours darkness in a climate cabinet and the activity of a compound was assessed as percent disease control compared to untreated when an appropriate level of disease damage appears in untreated check leaf segments (6 to 8 days after application). The following compounds at 200 ppm in the applied formulation give at least 80% disease control in this test when compared to untreated control leaf disks under the same conditions, which show extensive disease development.

[2] = tested on: Puccinia recondita f. sp. tritici; assay: Fungicidal activity against Puccinia recondita f. sp. tritici / wheat / leaf disc preventative (brown rust); assay type: in vivo; settings: foliar, 200 ppm in the applied formulation, wheat leaf segments cv. Kanzler, inoculated 1 day after application, assessed 7 to 9 days after application, compared to untreated, read-out: disease control
Experimental: Leaf disks or leaf segments of various plant species are cut from plants grown in a greenhouse. The cut leaf disks or segments are placed in multiwell plates (24-well format) onto water agar. The leaf disks are sprayed with a test solution before (preventative) or after (curative) inoculation. Compounds to be tested are prepared as DMSO solutions (max. 10 mg/mL) which are diluted to the appropriate concentration with 0.025% Tween20 just before spraying. The inoculated leaf disks or segments are incubated under defined conditions (temperature, relative humidity, light, etc.) according to the respective test system. A single evaluation of disease level is carried out 3 to 14 days after inoculation, depending on the pathosystem. Percent disease control relative to the untreated check leaf disks or segments is then calculated. Wheat leaf segments cv. Kanzler were placed on agar in multiwell plates (24-well format) and sprayed with the formulated test compound diluted in water. The leaf disks were inoculated with a spore suspension of the fungus 1 day after application. The inoculated leaf segments were incubated at 19° C. and 75% relative humidity (rh) under a light regime of 12 hours light/12 hours darkness in a climate cabinet and the activity of a compound was assessed as percent disease control compared to untreated when an appropriate level of disease damage appears in untreated check leaf segments (7 to 9 days after application). The following compounds at 200 ppm in the applied formulation give at least 80% disease control in this test when compared to untreated control leaf disks under the same conditions, which show extensive disease development.

[3] = tested on: Phakopsora pachyrhizi; assay: Fungicidal activity against Phakopsora pachyrhizi / soybean / leaf disc preventative (Asian soybean rust); assay type: in vivo; settings: foliar, 200 ppm in the applied formulation, soybean leaf disks, inoculated one day after application, assessed 12 to 14 days after application, compared to untreated, read-out: disease control
Experimental: Leaf disks or leaf segments of various plant species are cut from plants grown in a greenhouse. The cut leaf disks or segments are placed in multiwell plates (24-well format) onto water agar. The leaf disks are sprayed with a test solution before (preventative) or after (curative) inoculation. Compounds to be tested are prepared as DMSO solutions (max. 10 mg/mL) which are diluted to the appropriate concentration with 0.025% Tween20 just before spraying. The inoculated leaf disks or segments are incubated under defined conditions (temperature, relative humidity, light, etc.) according to the respective test system. A single evaluation of disease level is carried out 3 to 14 days after inoculation, depending on the pathosystem. Percent disease control relative to the untreated check leaf disks or segments is then calculated. Soybean leaf disks are placed on water agar in multiwell plates (24-well format) and sprayed with the formulated test compound diluted in water. One day after application leaf discs are inoculated by spraying a spore suspension on the lower leaf surface. After an incubation period in a climate cabinet of 24-36 hours in darkness at 20° C. and 75% rh leaf disc are kept at 20° C. with 12 hours light/day and 75% rh. The activity of a compound is assessed as percent disease control compared to untreated when an appropriate level of disease damage appears in untreated check leaf disks (12 to 14 days after application). The following compounds at 200 ppm in the applied formulation give at least 80% disease control in this test when compared to untreated control leaf disks under the same conditions, which show extensive disease development.

[4] = tested on: Glomerella lagenarium (Colletotrichum lagenarium); assay: Fungicidal activity against Glomerella lagenarium (Colletotrichum lagenarium) liquid culture / cucumber / preventative (anthracnose); assay type: cell-based; settings: Colletotrichum orbiculare; 20 ppm in the applied formulation; liquid culture in PDB, 24° C.; 3 to 4 days after application; compared to untreated control; read-out: disease control (inhibition of growth measured photometrically)
Experimental: Mycelia fragments or conidia suspensions of a fungus prepared either freshly from liquid cultures of the fungus or from cryogenic storage, are directly mixed into nutrient broth. DMSO solutions of the test compound (max. 10 mg/mL) are diluted with 0.025% Tween20 by a factor of 50 and 10 μL of this solution is pipetted into a microtiter plate (96-well format). The nutrient broth containing the fungal spores/mycelia fragments is then added to give an end concentration of the tested compound. The test plates are incubated in the dark at 24° C. and 96% relative humidity (rh). The inhibition of fungal growth is determined photometrically after 2 to 7 days, depending on the pathosystem, and percent antifungal activity relative to the untreated check is calculated. Conidia of the fungus from cryogenic storage are directly mixed into nutrient broth (PDB—potato dextrose broth). After placing a (DMSO) solution of test compound into a microtiter plate (96-well format), the nutrient broth containing the fungal spores is added. The test plates are incubated at 24° C. and the inhibition of growth is measured photometrically 3 to 4 days after application. The following compounds at 20 ppm in the applied formulation give at least 80% disease control in this test when compared to untreated control under the same conditions, which show extensive disease development.

| SMILES | melting point [°C] | pest or weed control at 200 ppm [1] [%] | pest or weed control at 200 ppm [2] [%] | pest or weed control at 200 ppm [3] [%] | inhibition at 20 ppm [4] [%] |
| --- | --- | --- | --- | --- | --- |
| CNC(=S)c1ccnn1Cc1ccc(-c2noc(C(F)(F)F)n2)cc1 [Compound 1.1, N-methyl-2-[[4-[5-(trifluoromethyl)-1,2,4-oxadiazol-3-yl]phenyl]methyl] pyrazole-3-carbothioamide] | 159 to 164 | ≥ 80 | ≥ 80 | ≥ 80 | ≥ 80 |
| CN(C)C(=S)c1ncn(Cc2ccc(-c3noc(C(F)(F)F)n3)cc2)n1 [Compound 1.2, N,N-dimethyl-1-[[4-[5-(trifluoromethyl)-1,2,4-oxadiazol-3-yl]phenyl]methyl]-1,2,4-triazole-3-carbothioamide] | – | ≥ 80 | ≥ 80 | ≥ 80 | ≥ 80 |
| FC(F)(F)c1nc(-c2ccc(Cn3ccc(C(=S)NC4CC4)n3)cc2)no1 [Compound 1.3, N-cyclopropyl-1-[[4-[5-(trifluoromethyl)-1,2,4-oxadiazol-3-yl]phenyl]methyl] pyrazole-3-carbothioamide] | – | ≥ 80 | ≥ 80 | ≥ 80 | ≥ 80 |
| CNC(=S)c1ncnn1Cc1ccc(-c2noc(C(F)(F)F)n2)cc1 [Compound 1.4, N-methyl-2-[[4-[5-(trifluoromethyl)-1,2,4-oxadiazol-3-yl]phenyl]methyl]-1,2,4-triazole-3-carbothioamide] | – | ≥ 80 | ≥ 80 | ≥ 80 | ≥ 80 |
| CNC(=S)c1ncnn1Cc1ccc(-c2noc(C(F)(F)F)n2)s1 [Compound 1.5, N-methyl-2-[[5-[5-(trifluoromethyl)-1,2,4-oxadiazol-3-yl]-2-thienyl]methyl]-1,2,4-triazole-3-carbothioamide] | 86 to 95 | ≥ 80 | ≥ 80 | ≥ 80 | ≥ 80 |
| CNC(=S)c1ccn(Cc2ccc(-c3noc(C(F)(F)F)n3)s2)n1 [Compound 1.6, N-methyl-1-[[5-[5-(trifluoromethyl)-1,2,4-oxadiazol-3-yl]-2-thienyl]methyl]pyrazole-3-carbothioamide] | 118 to 122 | ≥ 80 | ≥ 80 | ≥ 80 | ≥ 80 |
| CCONC(=S)c1ccn(Cc2ccc(-c3noc(C(F)(F)F)n3)s2)n1 [Compound 1.7, N-ethoxy-1-[[5-[5-(trifluoromethyl)-1,2,4-oxadiazol-3-yl]-2-thienyl]methyl]pyrazole-3-carbothioamide] | – | ≥ 80 | ≥ 80 | ≥ 80 | ≥ 80 |
| CNC(=S)c1cnn(C(C)c2ccc(-c3noc(C(F)(F)F)n3)s2)c1 (stereo not drawn) [Compound 1.9, N-methyl-1-[1-[5-[5-(trifluoromethyl)-1,2,4-oxadiazol-3-yl]-2-thienyl]ethyl]pyrazole-4-carbothioamide] | – | ≥ 80 | ≥ 80 | ≥ 80 | ≥ 80 |
| FC(F)(F)c1nc(-c2ccc(Cn3ccnc3C(=S)NC3CC3)s2)no1 [Compound 1.11, N-cyclopropyl-1-[[5-[5-(trifluoromethyl)-1,2,4-oxadiazol-3-yl]-2-thienyl]methyl] imidazole-2-carbothioamide] | – | ≥ 80 | ≥ 80 | ≥ 80 | ≥ 80 |
| CCCNC(=S)c1nccn1Cc1ccc(-c2noc(C(F)(F)F)n2)s1 [Compound 1.15, N-propyl-1-[[5-[5-(trifluoromethyl)-1,2,4-oxadiazol-3-yl]-2-thienyl]methyl] imidazole-2-carbothioamide] | – | ≥ 80 | ≥ 80 | ≥ 80 | ≥ 80 |

More lines, main results first:

| melting point [°C] | SMILES | pest or weed control at 200 ppm [1] [%] | pest or weed control at 200 ppm [2] [%] | pest or weed control at 200 ppm [3] [%] | inhibition at 20 ppm [4] [%] |
| --- | --- | --- | --- | --- | --- |
| 112 to 118 | CN(C)C(=S)c1ncn(Cc2ccc(-c3noc(C(F)(F)F)n3)s2)n1 [Compound 1.8, N,N-dimethyl-1-[[5-[5-(trifluoromethyl)-1,2,4-oxadiazol-3-yl]-2-thienyl]methyl]-1,2,4-triazole-3-carbothioamide] | ≥ 80 | ≥ 80 | ≥ 80 | ≥ 80 |
| 75 to 83 | CC(c1ccc(-c2noc(C(F)(F)F)n2)s1)n1cc(C(=S)N2CCC2)cn1 (stereo not drawn) [Compound 1.10, azetidin-1-yl-[1-[1-[5-[5-(trifluoromethyl)-1,2,4-oxadiazol-3-yl]-2-thienyl]ethyl]pyrazol-4-yl]methanethione] | ≥ 80 | ≥ 80 | ≥ 80 | ≥ 80 |
| 170 to 172 | NC(=S)c1nccn1Cc1ccc(-c2noc(C(F)(F)F)n2)s1 [Compound 1.12, 1-[[5-[5-(trifluoromethyl)-1,2,4-oxadiazol-3-yl]-2-thienyl]methyl] imidazole-2-carbothioamide] | ≥ 80 | ≥ 80 | ≥ 80 | ≥ 80 |
| 165.5 to 167 | FC(F)(F)c1nc(-c2ccc(Cn3cc(CNC(=S)C4CC4)cn3)s2)no1 [Compound 1.13, N-[[1-[[5-[5-(trifluoromethyl)-1,2,4-oxadiazol-3-yl]-2-thienyl]methyl]pyrazol-4-yl]methyl] cyclopropane carbothioamide] | ≥ 80 | ≥ 80 | ≥ 80 | ≥ 80 |
